Each block holds one compound with its values, some of them ahead of it.
Legend:
[1] = target: T1, mouse Siglec-2-Fc-Avi (CD22) (Mus musculus, UniProt P35329); experiment: SPR binding affinity to mouse CD22; settings: steady-state analysis
T1 construct: made in house
T1 sequence (P35329 22-708 limits assumed): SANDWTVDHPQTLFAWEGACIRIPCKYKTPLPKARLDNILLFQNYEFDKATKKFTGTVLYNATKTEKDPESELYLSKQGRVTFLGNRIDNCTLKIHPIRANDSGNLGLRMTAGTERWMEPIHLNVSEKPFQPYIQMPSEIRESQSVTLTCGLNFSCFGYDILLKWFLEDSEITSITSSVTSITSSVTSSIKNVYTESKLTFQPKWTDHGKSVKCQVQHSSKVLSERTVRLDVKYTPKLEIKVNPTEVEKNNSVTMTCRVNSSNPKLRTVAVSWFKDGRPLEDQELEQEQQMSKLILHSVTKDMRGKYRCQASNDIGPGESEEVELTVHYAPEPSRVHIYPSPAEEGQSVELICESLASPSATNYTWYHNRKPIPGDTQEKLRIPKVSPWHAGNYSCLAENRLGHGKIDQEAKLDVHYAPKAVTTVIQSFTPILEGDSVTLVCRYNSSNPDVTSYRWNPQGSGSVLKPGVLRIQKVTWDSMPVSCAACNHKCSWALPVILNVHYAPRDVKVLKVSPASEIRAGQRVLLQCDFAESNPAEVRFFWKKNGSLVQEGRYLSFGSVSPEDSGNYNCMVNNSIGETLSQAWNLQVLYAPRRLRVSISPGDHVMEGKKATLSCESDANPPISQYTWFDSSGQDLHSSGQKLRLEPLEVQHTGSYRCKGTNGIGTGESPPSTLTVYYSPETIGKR
How it was run: (§1)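 Steady-state fits gave the affinities. Before capture on a streptavidin surface, biotinylated CD22 had native sialic acids stripped (SialoExo, 4 hours, 37° C.). Running buffer: 10 mM HEPES pH 7.5, 150 mM NaCl, 0.05% Tween-20, 1% DMSO, with DMSO solvent correction.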

[2] = target: T2, human Siglec-2/CD22 protein (Homo sapiens, UniProt P20273); experiment: SPR binding affinity to human CD22; settings: steady-state analysis
T2 construct: purchased Acro Biosystems SI2-H82E3
T2 sequence (P20273 20-847): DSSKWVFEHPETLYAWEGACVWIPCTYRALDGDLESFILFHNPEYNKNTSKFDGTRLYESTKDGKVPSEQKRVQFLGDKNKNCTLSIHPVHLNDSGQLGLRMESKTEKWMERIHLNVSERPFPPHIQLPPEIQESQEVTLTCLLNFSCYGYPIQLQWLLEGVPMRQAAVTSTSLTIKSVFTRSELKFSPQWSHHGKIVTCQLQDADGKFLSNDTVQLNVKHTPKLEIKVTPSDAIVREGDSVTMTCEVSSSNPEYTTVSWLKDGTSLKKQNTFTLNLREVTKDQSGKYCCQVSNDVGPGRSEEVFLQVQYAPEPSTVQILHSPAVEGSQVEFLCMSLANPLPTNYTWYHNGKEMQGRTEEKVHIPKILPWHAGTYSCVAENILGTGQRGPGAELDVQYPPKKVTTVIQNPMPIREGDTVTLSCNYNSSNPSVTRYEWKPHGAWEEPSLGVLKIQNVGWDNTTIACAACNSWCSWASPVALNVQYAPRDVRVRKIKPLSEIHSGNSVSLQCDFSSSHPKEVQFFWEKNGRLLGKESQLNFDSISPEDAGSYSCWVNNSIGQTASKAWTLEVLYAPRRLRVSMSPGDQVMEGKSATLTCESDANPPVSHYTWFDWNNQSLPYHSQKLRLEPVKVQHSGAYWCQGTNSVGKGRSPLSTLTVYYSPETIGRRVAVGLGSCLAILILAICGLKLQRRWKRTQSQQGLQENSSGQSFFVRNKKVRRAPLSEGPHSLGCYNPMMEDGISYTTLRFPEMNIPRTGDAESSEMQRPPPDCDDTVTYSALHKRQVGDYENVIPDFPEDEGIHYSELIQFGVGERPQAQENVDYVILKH
How it was run: as §1

cynomolgus Siglec-2/CD22 = cynomolgus Siglec-2/CD22 (Macaca fascicularis, UniProt A0A2K5WCZ6); experiment: biochemical; assay type: binding; settings: SPR, steady-state analysis; read-out: Affinity cyno CD22
How it was run: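 SPR with desialylated (SialoExo, 4 h, 37° C.) cynomolgus CD22 amine-coupled to a CM5 chip. Running buffer 10 mM HEPES, 150 mM NaCl, 0.05% Tween-20, pH 7.5, 1% DMSO, with solvent correction; 120 s dissociation. Affinities from steady-state analysis.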

Sequence of cynomolgus Siglec-2/CD22 (A0A2K5WCZ6 entry or part of it): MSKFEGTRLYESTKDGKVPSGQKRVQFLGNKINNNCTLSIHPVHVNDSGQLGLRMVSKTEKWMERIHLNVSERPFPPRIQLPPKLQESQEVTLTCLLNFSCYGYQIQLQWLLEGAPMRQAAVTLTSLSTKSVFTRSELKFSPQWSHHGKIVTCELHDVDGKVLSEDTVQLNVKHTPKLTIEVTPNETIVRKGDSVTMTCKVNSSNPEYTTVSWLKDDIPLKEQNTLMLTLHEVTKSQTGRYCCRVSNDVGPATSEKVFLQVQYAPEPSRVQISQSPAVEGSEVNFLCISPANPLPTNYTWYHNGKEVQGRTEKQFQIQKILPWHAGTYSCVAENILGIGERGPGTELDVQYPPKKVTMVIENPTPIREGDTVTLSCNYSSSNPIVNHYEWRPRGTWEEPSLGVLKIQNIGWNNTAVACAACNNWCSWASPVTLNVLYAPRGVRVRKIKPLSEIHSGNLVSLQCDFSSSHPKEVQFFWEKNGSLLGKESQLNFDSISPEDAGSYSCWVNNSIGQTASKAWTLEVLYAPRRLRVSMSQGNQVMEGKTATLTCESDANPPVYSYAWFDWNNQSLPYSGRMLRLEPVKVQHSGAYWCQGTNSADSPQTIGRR

Compound: CC(=O)NCCOCCOCCOCCOCCC(=O)NCCOCCOCCO[C@]1(C(=O)O)C[C@H](O)[C@@H](NC(=O)CO)[C@H]([C@H](O)[C@H](O)CNC(=O)Cc2ccc(-c3ccccc3)cc2)O1 [Compound 236, (2R,4S,5R,6R)-6-((1R,2R)-3-(2-([1,1′-biphenyl]-4-yl)acetamido)-1,2-dihydroxypropyl)-2-((2,18-dioxo-6,9,12,15,22,25-hexaoxa-3,19-diazaheptacosan-27-yl)oxy)-4-hydroxy-5-(2-hydroxyacetamido) tetrahydro-2H-pyran-2-carboxylic acid]
Kd [1]: 1000 to 10000 nM
Kd [2]: 1000 to 10000 nM
Kd (cynomolgus Siglec-2/CD22): 1000 to 10000 nM

Compound: C#CCOc1ccc(CO[C@]2(C(=O)O)C[C@H](O)[C@@H](NC(=O)CO)[C@H]([C@H](O)[C@H](O)CNC(=O)Cc3ccc(-c4ccc(O)cc4)cc3C)O2)cc1 [Compound 56, (2R,4S,5R,6R)-6-((1R,2R)-1,2-dihydroxy-3-(2-(4′-hydroxy-3-methyl-[1,1′-biphenyl]-4-yl)acetamido)propyl)-4-hydroxy-5-(2-hydroxyacetamido)-2-((4-(prop-2-yn-1-yloxy)benzyl)oxy)tetrahydro-2H-pyran-2-carboxylic acid]
Kd [1]: < 1000 nM
Kd [2]: < 1000 nM
Kd (cynomolgus Siglec-2/CD22): 1000 to 10000 nM

Compound: CC(=O)NCCOCCOCCOCCOCc1cn(CCOCCOCCO[C@]2(C(=O)O)C[C@H](O)[C@@H](NC(=O)CO)[C@H]([C@H](O)[C@H](O)CNC(=O)Cc3ccc(-c4ccccc4)cc3)O2)nn1 [Cpd. 243, (2R,4S,5R,6R)-6-((1R,2R)-3-(2-([1,1′-biphenyl]-4-yl)acetamido)-1,2-dihydroxypropyl)-4-hydroxy-5-(2-hydroxyacetamido)-2-(2-(2-(2-(4-(15-oxo-2,5,8,11-tetraoxa-14-azahexadecyl)-1H-1,2,3-triazol-1-yl)ethoxy)ethoxy)ethoxy) tetrahydro-2H-pyran-2-carboxylic acid]
Kd [1]: 1000 to 10000 nM
Kd [2]: 1000 to 10000 nM
Kd (cynomolgus Siglec-2/CD22): 1000 to 10000 nM

Compound: O=C(O)CCCCCCCO[C@]1(C(=O)O)C[C@H](O)[C@@H](NC(=O)CO)[C@H]([C@H](O)[C@H](O)CNC(=O)Cc2ccc(Cl)cc2)O1 [Compound 97, (2R,4S,5R,6R)-2-((7-carboxyheptyl)oxy)-6-((1R,2R)-3-(2-(4-chlorophenyl)acetamido)-1,2-dihydroxypropyl)-4-hydroxy-5-(2-hydroxyacetamido)tetrahydro-2H-pyran-2-carboxylic acid]
Kd [1]: < 1000 nM
Kd [2]: < 1000 nM
Kd (cynomolgus Siglec-2/CD22): < 1000 nM

Compound: C#CCOCCOCCO[C@]1(C(=O)O)C[C@H](O)[C@@H](NC(=O)C(C)(C)O)[C@H]([C@H](O)[C@H](O)CNC(=O)Cc2ccc(-c3ccc(O)cc3)cc2)O1 [Compound 71, (2R,4S,5R,6R)-6-((1R,2R)-1,2-dihydroxy-3-(2-(4′-hydroxy-[1,1′-biphenyl]-4-yl)acetamido)propyl)-4-hydroxy-5-(2-hydroxy-2-methylpropanamido)-2-(2-(2-(prop-2-yn-1-yloxy)ethoxy)ethoxy)tetrahydro-2H-pyran-2-carboxylic acid]
Kd [1]: > 10000 nM
Kd [2]: 1000 to 10000 nM
Kd (cynomolgus Siglec-2/CD22): 1000 to 10000 nM

Compound: C#CCOCCCCCCO[C@]1(C(=O)O)C[C@H](O)[C@@H](NC(=O)CO)[C@H]([C@H](O)[C@H](O)CNC(=O)Cc2ccc(-c3nnn[nH]3)cc2)O1 [Compound 176, (2R,4S,5R,6R)-6-((1R,2R)-3-(2-(4-(1H-tetrazol-5-yl)phenyl)acetamido)-1,2-dihydroxypropyl)-4-hydroxy-5-(2-hydroxyacetamido)-2-((6-(prop-2-yn-1-yloxy)hexyl)oxy)tetrahydro-2H-pyran-2-carboxylic acid]
Kd [1]: < 1000 nM
Kd [2]: < 1000 nM
Kd (cynomolgus Siglec-2/CD22): < 1000 nM

Compound: C#CCOCCCCCCO[C@]1(C(=O)O)C[C@H](O)[C@@H](NC(=O)CO)[C@H]([C@H](O)[C@H](O)CNC(=O)Cc2ccc(Cl)c(O)c2)O1 [Compound 128, (2R,4S,5R,6R)-6-((1R,2R)-3-(2-(4-chloro-3-hydroxyphenyl)acetamido)-1,2-dihydroxypropyl)-4-hydroxy-5-(2-hydroxyacetamido)-2-((6-(prop-2-yn-1-yloxy)hexyl)oxy)tetrahydro-2H-pyran-2-carboxylic acid]
Kd [1]: < 1000 nM
Kd [2]: < 1000 nM
Kd (cynomolgus Siglec-2/CD22): < 1000 nM

Compound: CC(=O)NCCOCCOCCOCCOCCC(=O)NCCCCCCO[C@]1(C(=O)O)C[C@H](O)[C@@H](NC(=O)CO)[C@H]([C@H](O)[C@H](O)CNC(=O)Cc2ccc(Cl)cc2)O1 [Cpd. 244, (2R,4S,5R,6R)-6-((1R,2R)-3-(2-(4-chlorophenyl)acetamido)-1,2-dihydroxypropyl)-2-((2,18-dioxo-6,9,12,15-tetraoxa-3,19-diazapentacosan-25-yl)oxy)-4-hydroxy-5-(2-hydroxyacetamido) tetrahydro-2H-pyran-2-carboxylic acid]
Kd [1]: < 1000 nM
Kd [2]: < 1000 nM
Kd (cynomolgus Siglec-2/CD22): < 1000 nM

Results, then the compound that gave them:

Kd [1]: 1000 to 10000 nM
Kd [2]: < 1000 nM
Kd (cynomolgus Siglec-2/CD22): < 1000 nM
Compound: CC(=O)NCCOCCOCCOCCOCCNC(=O)CCCCCCO[C@]1(C(=O)O)C[C@H](O)[C@@H](NC(=O)CO)[C@H]([C@H](O)[C@H](O)CNC(=O)Cc2ccc(C(F)F)cc2)O1 [Cpd. 257, (2R,4S,5R,6R)-6-((1R,2R)-3-(2-(4-(difluoromethyl)phenyl)acetamido)-1,2-dihydroxypropyl)-2-((2,19-dioxo-6,9,12,15-tetraoxa-3,18-diazapentacosan-25-yl)oxy)-4-hydroxy-5-(2-hydroxyacetamido)tetrahydro-2H-pyran-2-carboxylic acid]

Kd [1]: 1000 to 10000 nM
Kd [2]: 1000 to 10000 nM
Kd (cynomolgus Siglec-2/CD22): 1000 to 10000 nM
Compound: C#CCOCCOCCO[C@]1(C(=O)O)C[C@H](O)[C@@H](NC(=O)CO)[C@H]([C@H](O)[C@H](O)CNC(=O)Cc2ccc(OC)cc2)O1 [Compound 174, (2R,4S,5R,6R)-6-((1R,2R)-1,2-dihydroxy-3-(2-(4-methoxyphenyl)acetamido)propyl)-4-hydroxy-5-(2-hydroxyacetamido)-2-(2-(2-(prop-2-yn-1-yloxy)ethoxy)ethoxy)tetrahydro-2H-pyran-2-carboxylic acid]

Kd [1]: > 10000 nM
Kd [2]: 1000 to 10000 nM
Kd (cynomolgus Siglec-2/CD22): 1000 to 10000 nM
Compound: CC(=O)NCCOCCOCCOCCOCCn1cc(CCCCCCO[C@]2(C(=O)O)C[C@H](O)[C@@H](NC(C)=O)[C@H]([C@H](O)[C@H](O)CNC(=O)c3cccc(Cl)c3)O2)nn1 [Compound 272, (2R,4S,5R,6R)-5-acetamido-6-((1R,2R)-3-(3-chlorobenzamido)-1,2-dihydroxypropyl)-4-hydroxy-2-((6-(1-(2-oxo-6,9,12,15-tetraoxa-3-azaheptadecan-17-yl)-1H-1,2,3-triazol-4-yl)hexyl)oxy)tetrahydro-2H-pyran-2-carboxylic acid]

Kd [1]: 1000 to 10000 nM
Kd [2]: < 1000 nM
Kd (cynomolgus Siglec-2/CD22): < 1000 nM
Compound: C#CCCCCCCO[C@]1(C(=O)O)C[C@H](O)[C@@H](NC(=O)CO)[C@H]([C@H](O)[C@H](O)CNC(=O)c2ccc(Cl)cc2)O1 [Cpd. 267, (2R,4S,5R,6R)-6-((1R,2R)-3-(4-chlorobenzamido)-1,2-dihydroxypropyl)-4-hydroxy-5-(2-hydroxyacetamido)-2-(oct-7-yn-1-yloxy) tetrahydro-2H-pyran-2-carboxylic acid]
